Patent publication US7002010B2, “Process for the preparation of morpholinones as light stabilizers” (Ciba Specialty Chemicals Corporation, priority 2000, dated 2006)

For `CC(N)(CO)COC(C)(C)C` (stereo not shown) [Compound 301, 2-amino-3-tert-butoxy-2-methyl-propan-1-ol], the melting point was 30 to 35 °C.
